The values below come from patent US5677419A, “Cyclic vasoactive peptide analogs” (Hoffmann-La Roche Inc., priority 1994, dated 1997).

SMILES strings stand for the structures. Where a SMILES comes first, the peptide text is derived from it. Bridges are numbered along the chain shown (N, C = ends). [ ]: non-standard residue; d: D form. Phe(4-NH2) = Nc1ccc(C[C@H](N)C(=O)O)cc1; Phe(4-F) = N[C@@H](Cc1ccc(F)cc1)C(=O)O; 1Nal = N[C@@H](Cc1cccc2ccccc12)C(=O)O; 2Nal = N[C@@H](Cc1ccc2ccccc2c1)C(=O)O; Nle = CCCC[C@H](N)C(=O)O

The subject of the test is guinea pig tracheal smooth muscle. The test is described as follows: Tracheal relaxant activity of VIP analogs on isolated guinea pig tracheal rings. The test is classed as cell-based. The settings on record: cumulative concentration response, relaxation as % of maximum response to VIP (10^-6 M=100%), three tissues pooled, linear regression. As to the method:
The relaxant activity of the VIP analogs were studied in a model utilizing guinea pig trachea. [Wasserman, M. A. et al., in Vasoactive Intestinal Peptide, S. I. Said, ed., Raven Press, New York 1982, pp 177-184] All tissues were taken from male albino guinea pig weighing 400-600 g, anesthetized with urethane (2 g/kg, i.p.). After exanguination, the trachea were removed and divided into four ring segments (3 mm length). Each ring was suspended by 30 gauge stainless steel wires in a 10 mL jacketed tissue bath and attached via 4-0 silk thread to a GRASS force displacement transducer (model FT03C, Grass Instruments Co., Quincy, Mass.), for isometric recording of tension. The smooth muscle was bathed in modified Krebs solution of the following composition: NaCl, 120 mM; KCl, 4.7 mM; CaCl2, 2.5 mM; MgSO4.7H2 O, 1.2 mM; NaHCO3, 25 mM; K2 HPO4 monobasic, 1.2 mM; and dextrose, 10 mM. Tissue baths were maintained at 37° C. and constantly bubbled with 95% O2 and 5% CO2. Responses were recorded on an 8 channel and a 4 channel HEWLETT-PACKARD (model 7702B and 7754A, respectively) recorder (Hewlett- Packard, Paramus, N.J.). Tracheal rings were placed under a resting tension of 1.5 g which was determined to be at or near optimal in preliminary experiments. Frequent readjustments of tension were required during the 60 minute stabilization period which followed. Tissues were rinsed at 15 minute intervals.
Cumulative concentration response curves were obtained for each tissue by successive […] increases in the bath concentration of VIP or VIP analogs according to the method of VanRossum [Arch. Int. Pharmacodyn., 143, 299-330 (1963)]. Only one cumulative dose response curve was obtained on a single tissue. To minimize variability between tissues, relaxant responses were expressed as a percentage of the maximum response obtained to VIP (10^-6 M=100%) added at the end of each concentration response experiment. Responses obtained from three tissues were pooled and EC50 values were determined by linear regression.
The results summarized in Table I show the tracheal relaxant activity of the VIP analogs in comparison to native VIP.

Compound `CCCC[C@H](NC(=O)[C@H](CCC(N)=O)NC(=O)[C@H](CCCCN)NC(=O)[C@H](CCCNC(=N)N)NC(=O)[C@H](CC(C)C)NC(=O)[C@H](CC(C)C)NC(=O)[C@@H](NC(=O)[C@H](Cc1ccc2ccccc2c1)NC(=O)[C@H](CC(N)=O)NC(=O)[C@H](CC(=O)O)NC(=O)[C@@H](NC(=O)[C@H](Cc1ccccc1)NC(=O)[C@@H](NC(=O)[C@H](C)NC(=O)[C@H](CC(=O)O)NC(=O)[C@H](CO)NC(=O)[C@H](Cc1c[nH]cn1)NC(C)=O)C(C)C)[C@@H](C)O)[C@@H](C)O)C(=O)N[C@@H](C)C(=O)N[C@@H](C)C(=O)N[C@@H](CCCCN)C(=O)N[C@H]1CCCCNC(=O)C[C@@H](C(=O)N[C@H](C(=O)N[C@@H](CC(C)C)C(=O)N[C@H](C(N)=O)[C@@H](C)O)C(C)C)NC(=O)[C@H](CC(N)=O)NC(=O)[C@H](CC(C)C)NC(=O)[C@H](Cc2ccc(O)cc2)NC1=O` [SEQ ID NO:35, Ac-[2-Nal^10,Leu^12,Nle^17,Ala^19,Asp^25,Val^26,Thr^28]-VIP cyclo (Lys^21 →Asp^25)] (Ac-HSDAVFTDN[2Nal]TLLRKQ[Nle]AAKKYLNDVLT-NH2; lactam 21-25) registered an EC50 of 4.2 nM.
`CCCC[C@H](NC(=O)[C@H](CCC(N)=O)NC(=O)[C@H](CCCCN)NC(=O)[C@H](CCCNC(=N)N)NC(=O)[C@H](CC(C)C)NC(=O)[C@H](CC(C)C)NC(=O)[C@@H](NC(=O)[C@H](Cc1ccc(OC)cc1)NC(=O)[C@H](CC(N)=O)NC(=O)[C@H](CC(=O)O)NC(=O)[C@@H](NC(=O)[C@H](Cc1ccccc1)NC(=O)[C@@H](NC(=O)[C@H](C)NC(=O)[C@H](CC(=O)O)NC(=O)[C@H](CO)NC(=O)[C@H](Cc1c[nH]cn1)NC(C)=O)C(C)C)[C@@H](C)O)[C@@H](C)O)C(=O)N[C@@H](C)C(=O)N[C@@H](C)C(=O)N[C@@H](CCCCN)C(=O)N[C@H]1CCCCNC(=O)C[C@@H](C(=O)N[C@H](C(=O)N[C@@H](CC(C)C)C(=O)N[C@H](C(N)=O)[C@@H](C)O)C(C)C)NC(=O)[C@H](CC(N)=O)NC(=O)[C@H](CC(C)C)NC(=O)[C@H](Cc2ccc(O)cc2)NC1=O` [SEQ ID NO:36, Ac-[O-Me-Tyr^10,Leu^12,Nle^17,Ala^19,Asp^25,Val^26,Thr^28]-VIP cyclo (Lys^21 →Asp^25)] (Ac-HSDAVFTDNY(Me)TLLRKQ[Nle]AAKKYLNDVLT-NH2; lactam 21-25) showed an EC50 of 0.84 nM.
`CCCC[C@H](NC(=O)[C@H](CCC(N)=O)NC(=O)[C@H](CCCCN)NC(=O)[C@H](CCCNC(=N)N)NC(=O)[C@H](CC(C)C)NC(=O)[C@H](CC(C)C)NC(=O)[C@@H](NC(=O)[C@H](Cc1ccc(N)cc1)NC(=O)[C@H](CC(N)=O)NC(=O)[C@H](CC(=O)O)NC(=O)[C@@H](NC(=O)[C@H](Cc1ccc(F)cc1)NC(=O)[C@@H](NC(=O)[C@H](C)NC(=O)[C@H](CC(=O)O)NC(=O)[C@H](CO)NC(=O)[C@H](Cc1c[nH]cn1)NC(C)=O)C(C)C)[C@@H](C)O)[C@@H](C)O)C(=O)N[C@@H](C)C(=O)N[C@@H](C)C(=O)N[C@@H](CCCCN)C(=O)N[C@H]1CCCCNC(=O)C[C@@H](C(=O)N[C@H](C(=O)N[C@@H](CC(C)C)C(=O)N[C@H](C(N)=O)[C@@H](C)O)C(C)C)NC(=O)[C@H](CC(N)=O)NC(=O)[C@H](CC(C)C)NC(=O)[C@H](Cc2ccc(O)cc2)NC1=O` [SEQ ID NO:37, Ac-[p-F-Phe^6,p-NH2 -Phe^10,Leu^12,Nle^17,Ala^19,Asp^25,Val^26,Thr^28]-VIP cyclo (Lys^21 →Asp^25)] (Ac-HSDAV[Phe(4-F)]TDN[Phe(4-NH2)]TLLRKQ[Nle]AAKKYLNDVLT-NH2; lactam 21-25) had an EC50 of 4.4 nM.
With `CCCC[C@H](NC(=O)[C@H](CCC(N)=O)NC(=O)[C@H](CCCCN)NC(=O)[C@H](CCCNC(=N)N)NC(=O)[C@H](CC(C)C)NC(=O)[C@H](CCCCN)NC(=O)[C@@H](NC(=O)[C@H](Cc1ccc(OC)cc1)NC(=O)[C@H](CC(N)=O)NC(=O)[C@H](CC(=O)O)NC(=O)[C@@H](NC(=O)[C@H](Cc1ccccc1)NC(=O)[C@@H](NC(=O)[C@H](C)NC(=O)[C@H](CC(=O)O)NC(=O)[C@H](CO)NC(=O)[C@H](Cc1c[nH]cn1)NC(C)=O)C(C)C)[C@@H](C)O)[C@@H](C)O)C(=O)N[C@@H](C)C(=O)N[C@@H](C)C(=O)N[C@@H](CCCCN)C(=O)N[C@H]1CCCCNC(=O)C[C@@H](C(=O)N[C@H](C(=O)N[C@@H](CC(C)C)C(=O)N[C@H](C(N)=O)[C@@H](C)O)C(C)C)NC(=O)[C@H](CC(N)=O)NC(=O)[C@H](CC(C)C)NC(=O)[C@H](Cc2ccc(O)cc2)NC1=O` [SEQ ID NO:41, Ac-[O-Me-Tyr^10,Lys^12,Nle^17,Ala^19,Asp^25,Val^26,Thr^28]-VIP cyclo (Lys^21 →Asp^25)] (Ac-HSDAVFTDNY(Me)TKLRKQ[Nle]AAKKYLNDVLT-NH2; lactam 21-25), the midpoint of the response, the EC50, lay at 2.6 nM.
`CCCC[C@H](NC(=O)[C@H](CCC(N)=O)NC(=O)[C@H](CCCCN)NC(=O)[C@H](CCCNC(=N)N)NC(=O)[C@H](CC(C)C)NC(=O)[C@H](CCCCN)NC(=O)[C@@H](NC(=O)[C@H](Cc1ccc(O)cc1)NC(=O)[C@H](CC(N)=O)NC(=O)[C@H](CC(=O)O)NC(=O)[C@@H](NC(=O)[C@H](Cc1cccc2ccccc12)NC(=O)[C@@H](NC(=O)[C@H](C)NC(=O)[C@H](CC(=O)O)NC(=O)[C@H](CO)NC(=O)[C@H](Cc1c[nH]cn1)NC(C)=O)C(C)C)[C@@H](C)O)[C@@H](C)O)C(=O)N[C@@H](C)C(=O)N[C@@H](C)C(=O)N[C@@H](CCCCN)C(=O)N[C@H]1CCCCNC(=O)C[C@@H](C(=O)N[C@H](C(=O)N[C@@H](CC(C)C)C(=O)N[C@H](C(N)=O)[C@@H](C)O)C(C)C)NC(=O)[C@H](CC(N)=O)NC(=O)[C@H](CC(C)C)NC(=O)[C@H](Cc2ccc(O)cc2)NC1=O` [SEQ ID NO:50, Ac-[1-Nal^6,Lys^12,Nle^17,Ala^19,Asp^25,Val^26,Thr^28]-VIP cyclo (Lys^21 →Asp^25)] (Ac-HSDAV[1Nal]TDNYTKLRKQ[Nle]AAKKYLNDVLT-NH2; lactam 21-25) showed an EC50 of 2.9 nM.
With `CCCC[C@H](NC(=O)[C@H](C)NC(=O)[C@H](CCCCN)NC(=O)[C@H](CCCNC(=N)N)NC(=O)[C@H](CC(C)C)NC(=O)[C@H](CCCCN)NC(=O)[C@@H](NC(=O)[C@H](Cc1ccc(O)cc1)NC(=O)[C@H](CC(N)=O)NC(=O)[C@H](CCC(=O)O)NC(=O)[C@@H](NC(=O)[C@H](Cc1ccccc1)NC(=O)[C@@H](NC(=O)[C@H](C)NC(=O)[C@H](CC(=O)O)NC(=O)[C@H](CO)NC(=O)[C@H](Cc1c[nH]cn1)NC(C)=O)C(C)C)[C@@H](C)O)[C@@H](C)O)C(=O)N[C@@H](C)C(=O)N[C@@H](C)C(=O)N[C@@H](CCCCN)C(=O)N[C@H]1CCCCNC(=O)C[C@@H](C(=O)N[C@@H](CC(C)C)C(=O)N[C@@H](CCCCN)C(=O)N[C@@H](CCCCN)C(N)=O)NC(=O)[C@H](CC(N)=O)NC(=O)[C@H](CC(C)C)NC(=O)[C@H](Cc2ccc(O)cc2)NC1=O` [SEQ ID NO:63, Ac-[Glu^8,Lys^12,Ala^16,Nle^17,Ala^19,Asp^25,Leu^26,Lys^27,28]-VIP cyclo (Lys^21 →Asp^25)] (Ac-HSDAVFTENYTKLRKA[Nle]AAKKYLNDLKK-NH2; lactam 21-25), the response was half-maximal at 0.9 nM (EC50).
